Measurements as given in the NIST ThermoML archive (doi:10.1021/je049657g).
± gives the expanded uncertainty stated by the source.

Conditions: 298.15 K, Liquid; for viscosity: 101 kPa, Capillary tube (Ostwald / Ubbelohde) method; for mass density: 101.33 kPa

viscosity	mass density	Structure (SMILES)
0.944 ± 0.008 mPa·s	936.54 ± 1.4 kg/m3	CC(=O)N(C)C [N,N-dimethylethanamide]
1.672 ± 0.014 mPa·s	1027.91 ± 1.6 kg/m3	CN1CCCC1=O [N-methylpyrrolidone]
0.804 ± 0.007 mPa·s	943.65 ± 1.5 kg/m3	CN(C)C=O [dimethylformamide]

Structure (SMILES)	viscosity	mass density
O=C1CCCN1 [2-pyrrolidinone]	13.19 ± 0.17 mPa·s	1106.82 ± 2 kg/m3
